Laboratory results from US20170050957A1, “4-AMINO-6-(HETEROCYCLIC)PICOLINATES AND 6-AMINO-2-(HETEROCYCLIC)PYRIMIDINE-4-CARBOXYLATES AND THEIR USE AS HERBICIDES” (Dow AgroSciences LLC, priority 2013, published 2017).
Where two headings read alike, the source gives them in different places.

Legend:
[1] = tested on: Key Broadleaf Weed and Crop Species; test: Post-emergent Test II herbicidal activity (Table 15); format: in vivo; settings: post-emergence, 336 h, 14 d; for pest or weed control at 35 g/ha: 35 g ai/ha; for pest or weed control at 70 g/ha: 70 g ai/ha; for pest or weed control at 140 g/ha: 140 g ai/ha
Procedure, shortened: (§1)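 Greenhouse-grown seedlings at first/second true leaf receive a track spray at 187 L/ha, using a highest rate plus two-fold serial dilutions down to 1/16×. Watering is by subirrigation to avoid wash-off. Percent injury (0-100) is judged by eye at 14 d against untreated plants.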

[2] = tested on: Key Grass and Sedge Weeds as well as Grass Crops; test: Post-emergent Test II herbicidal activity (Table 16); format: in vivo; settings: post-emergence, 336 h, 14 d; for pest or weed control at 35 g/ha: 35 g ai/ha; for pest or weed control at 70 g/ha: 70 g ai/ha; for pest or weed control at 140 g/ha: 140 g ai/ha
Procedure, shortened: as §1

[3] = Abutilon theophrasti, velvetleaf (Abutilon theophrasti), read-out: Visual Growth Reduction (%) 14 Days After Application, ABUTH
[4] = Amaranthus retroflexus, redroot pigweed (Amaranthus retroflexus), read-out: Visual Growth Reduction (%) 14 Days After Application, AMARE
[5] = Brassica napus, oilseed rape, canola (Brassica napus), read-out: Visual Growth Reduction (%) 14 Days After Application, BRSNN
[6] = Chenopodium album, lambsquarters (Chenopodium album), read-out: Visual Growth Reduction (%) 14 Days After Application, CHEAL
[7] = Euphorbia heterophylla, wild poinsettia (Euphorbia heterophylla), read-out: Visual Growth Reduction (%) 14 Days After Application, EPHHL
[8] = Helianthus annuus, sunflower (Helianthus annuus), read-out: Visual Growth Reduction (%) 14 Days After Application, HELAN
[9] = Cyperus esculentus, yellow nutsedge (Cyperus esculentus), read-out: Visual Growth Reduction (%) 14 Days After Application, CYPES
[10] = Echinochloa crus-galli, barnyardgrass (Echinochloa crus-galli), read-out: Visual Growth Reduction (%) 14 Days After Application, ECHCG
[11] = Oryza sativa, rice (Oryza sativa), read-out: Visual Growth Reduction (%) 14 Days After Application, ORYSA
[12] = Setaria faberi, giant foxtail (Setaria faberi), read-out: Visual Growth Reduction (%) 14 Days After Application, SETFA
[13] = Triticum aestivum, wheat, spring (Triticum aestivum), read-out: Visual Growth Reduction (%) 14 Days After Application, TRZAS
[14] = Zea mays, maize, corn (Zea mays), read-out: Visual Growth Reduction (%) 14 Days After Application, ZEAMX

| Structure (SMILES) | pest or weed control at 35 g/ha [1, 3] | pest or weed control at 70 g/ha [1, 3] | pest or weed control at 140 g/ha [1, 3] | pest or weed control at 140 g/ha [1, 4] | pest or weed control at 35 g/ha [1, 5] | pest or weed control at 70 g/ha [1, 5] | pest or weed control at 140 g/ha [1, 5] | pest or weed control at 35 g/ha [1, 6] | pest or weed control at 70 g/ha [1, 6] | pest or weed control at 140 g/ha [1, 6] | pest or weed control at 35 g/ha [1, 7] | pest or weed control at 70 g/ha [1, 7] | pest or weed control at 140 g/ha [1, 7] | pest or weed control at 35 g/ha [1, 8] | pest or weed control at 70 g/ha [1, 8] | pest or weed control at 140 g/ha [1, 8] | pest or weed control at 35 g/ha [2, 9] | pest or weed control at 70 g/ha [2, 9] | pest or weed control at 140 g/ha [2, 9] | pest or weed control at 35 g/ha [2, 10] | also measured |
| --- | --- | --- | --- | --- | --- | --- | --- | --- | --- | --- | --- | --- | --- | --- | --- | --- | --- | --- | --- | --- | --- |
| COC(=O)c1nc(-c2ccc3cc[nH]c3c2F)c(F)c(N)c1OC [Compound 1.20] | 45 to 59% | 60 to 74% | 60 to 74% | 95 to 100% | 95 to 100% | 95 to 100% | 95 to 100% | 95 to 100% | 95 to 100% | 95 to 100% | 95 to 100% | 95 to 100% | 95 to 100% | 95 to 100% | 95 to 100% | 95 to 100% | 0 to 29% | 0 to 29% | 0 to 29% | 0 to 29% | pest or weed control at 35 g/ha [1, 4]: 75 to 84%; pest or weed control at 70 g/ha [1, 4]: 85 to 94%; pest or weed control at 70 g/ha [2, 10]: 60 to 74%; pest or weed control at 140 g/ha [2, 10]: 75 to 84%; pest or weed control at 35 g/ha [2, 11]: 0 to 29%; pest or weed control at 70 g/ha [2, 11]: 0 to 29%; pest or weed control at 140 g/ha [2, 11]: 0 to 29%; pest or weed control at 35 g/ha [2, 12]: 45 to 59%; pest or weed control at 70 g/ha [2, 12]: 75 to 84%; pest or weed control at 140 g/ha [2, 12]: 85 to 94%; pest or weed control at 35 g/ha [2, 13]: 0 to 29%; pest or weed control at 70 g/ha [2, 13]: 45 to 59%; pest or weed control at 140 g/ha [2, 13]: 60 to 74%; pest or weed control at 35 g/ha [2, 14]: 30 to 44%; pest or weed control at 70 g/ha [2, 14]: 45 to 59%; pest or weed control at 140 g/ha [2, 14]: 60 to 74%; melting point: 203 to 205 °C |
| COC(=O)c1nc(-c2ccc3c(ccn3C)c2)c(F)c(N)c1Cl [Compound 1.03] | 0 to 29% | 0 to 29% | 75 to 84% | 85 to 94% | 0 to 29% | 0 to 29% | 0 to 29% | 85 to 94% | 85 to 94% | 95 to 100% | 95 to 100% | 95 to 100% | 85 to 94% | 0 to 29% | 0 to 29% | 45 to 59% | 0 to 29% | 0 to 29% | 0 to 29% | 0 to 29% | pest or weed control at 70 g/ha [2, 10]: 0 to 29%; pest or weed control at 140 g/ha [2, 10]: 60 to 74%; pest or weed control at 35 g/ha [2, 11]: 0 to 29%; pest or weed control at 70 g/ha [2, 11]: 0 to 29%; pest or weed control at 140 g/ha [2, 11]: 0 to 29%; pest or weed control at 35 g/ha [2, 12]: 0 to 29%; pest or weed control at 70 g/ha [2, 12]: 0 to 29%; pest or weed control at 140 g/ha [2, 12]: 0 to 29%; pest or weed control at 35 g/ha [2, 13]: 0 to 29%; pest or weed control at 70 g/ha [2, 13]: 0 to 29%; pest or weed control at 140 g/ha [2, 13]: 0 to 29%; pest or weed control at 35 g/ha [2, 14]: 0 to 29%; pest or weed control at 70 g/ha [2, 14]: 0 to 29%; pest or weed control at 140 g/ha [2, 14]: 0 to 29%; melting point: 125 to 127 °C |
